Test results published in paper PMC6429710, “Structure–activity relationships in a series of antiplasmodial thieno[2,3-b]pyridines” (Malaria Journal, 2019).

Legend:
HEK293T cells = assay: Cytotoxicity assay on HEK293 cells (PrestoBlue viability); assay type: cell-based, human; details: cell viability, 48 h; mean of six determinations, range in brackets; read-out: IC50 [µM], HEK 293T
Method: HEK293T cells were seeded into a solid black flat bottom 96 well plate (2.5 × 10^4 cells/well) in 200 μL Dulbecco Modified Eagle Medium (DMEM) supplemented with 10% fetal bovine serum and 1% Pen/Strep (final concentration of 100 U/mL Penicillin and 100 μg/mL Streptomycin). Cells were incubated at 37 °C under 5% CO2. After 18 h the supernatant was removed and fresh DMEM containing serial dilutions of compounds was added. Compounds were solubilized in DMSO (final DMSO concentration in HEK293T culture was 0.5%.) Wells containing 0.5% DMSO served as a negative control. Plates were incubated for further 48 h at 37 °C under 5% CO2. To monitor cell viability the supernatant was removed and cells were incubated with 200 μL 10% PrestoBlue (Invitrogen) in PBS at 37 °C. After 30 min fluorescence (λex = 560 nm, λem = 590 nm) was measured in an EnVision multilable plate reader (Perkin Elmer, integration time 0.1 s/well). Data points were plotted into Graphpad Prism, normalized to the DMSO control and IC50 values were calculated using nonlinear regression.

[1] = Kinetic solubility by laser nephelometry; assay type: physicochemical; details: aqueous phosphate buffer pH 7.4, 1% DMSO, 25 °C, mean ± standard deviation
Method: Kinetic solubility indicates the solubility of the most rapidly precipitating form. Kinetic solubilities of 1 and 4h were determined by laser nephelometry using the […] nephelometer (BMG LabTech, Ortenberg, Germany) and F-bottom transparent 96-well plates. The instrument uses red laser light (635 nm, 80% intensity), which passes through the 96-well plate and which is scattered by turbid suspensions. Each compound was measured six times at 25 °C by preparing three independent stock solutions in concentrations of 5 to 10 mM in DMSO. From each stock solution two independent dilution series were prepared. Based on preliminary experiments, dilution concentrations were chosen such that at least five to six concentrations below and above the expected point of precipitation were recorded. To the 96-well plate containing 198 μL aqueous phosphate buffer at pH 7.4, 2 μL of each dilution sample in DMSO was added and shaken for 10 s. at 700 rpm (double orbital). […] The pH was adjusted by adding sulfuric acid. First, the plates were scanned without content to quantify the background, which was later subtracted from the obtained values of each individual well. As blank, 2 μL of neat DMSO was added to the phosphate buffer. Close to the point of precipitation, particle concentration can be assumed to be proportional to the intensity of scattered light. […]

CN(C)CCN(C)c1ccc(-c2c(C#N)c(N)nc3sc(C(=O)c4cccc(Cl)c4)c(N)c23)c(Cl)c1 [4h]
IC50 (HEK293T cells): 5.56 µM
S0 pH 7.4, exp (kinetic solubility) [1]: 4.8 ± 0.9 µM
